Measured values: PubChem BioAssay AID330 (DTP/NCI, 2004)
Several values for one entry are separate records, joined by “and”; a condition that tells them apart may be missing. Equal entries are not always repeated. Inconclusive results and toxic doses are left out. The calls were made as follows: active = survival T/C of 150% or more; inactive = T/C below 125% in these data.

System: P388 leukemia ip, CD2F1 mice, survival T/C
Experiment: NCI In Vivo Anticancer Drug Screen. Data for tumor model P388 Leukemia (intraperitoneal) in CD2F1 (CDF1) mice
Conditions: endpoint: median survival time, higher = longer survival
Outline: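 Mice carrying the transplanted tumor received test compound or vehicle. Survival was recorded in each group, and the value is the treated-group measurement divided by that of the vehicle-treated control group.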

[1] = dose: 60.0 mg/kg/injection, schedule: Q01DX005 (ip), vehicle: saline with Tween-80
[2] = dose: 12.5 mg/kg/injection, schedule: Q01DX009 (ip), vehicle: saline with Tween-80
[3] = dose: 50.0 mg/kg/injection, schedule: Q01DX009 (ip), vehicle: saline with Tween-80
[4] = dose: 100.0 mg/kg/injection, schedule: Q01DX009 (ip), vehicle: saline with Tween-80
[5] = dose: 200.0 mg/kg/injection, schedule: Q01DX009 (ip), vehicle: saline with Tween-80
[6] = dose: 120.0 mg/kg/injection, schedule: Q01DX005 (ip), vehicle: saline with Tween-80
[7] = dose: 240.0 mg/kg/injection, schedule: Q01DX005 (ip), vehicle: saline with Tween-80
[8] = dose: 100.0 mg/kg/injection, schedule: Q04DX003 (ip), vehicle: saline with Tween-80
[9] = dose: 200.0 mg/kg/injection, schedule: Q04DX003 (ip), vehicle: saline with Tween-80
[10] = dose: 50.0 mg/kg/injection, schedule: Q01DX009 (ip), vehicle: Klucel (hydroxypropylcellulose) (HPC)
[11] = dose: 100.0 mg/kg/injection, schedule: Q01DX009 (ip), vehicle: Klucel (hydroxypropylcellulose) (HPC)
[12] = dose: 25.0 mg/kg/injection, schedule: Q01DX009 (ip), vehicle: Klucel (hydroxypropylcellulose) (HPC)
[13] = dose: 25.0 mg/kg/injection, schedule: Q01DX009 (ip), vehicle: saline with Tween-80

Measured: T/C

CC1(C)N=c2cc3c(cc2N1c1ccc(Cl)cc1)=Nc1ccccc1N3c1ccc(Cl)cc1
inactive: dose: 7.5 mg/kg/injection, schedule: Q01DX005 (ip), vehicle: saline with Tween-80 99 % of control | dose: 15.0 mg/kg/injection, schedule: Q01DX005 (ip), vehicle: saline with Tween-80 90 % of control | dose: 30.0 mg/kg/injection, schedule: Q01DX005 (ip), vehicle: saline with Tween-80 87 % of control | [1] 89 % of control

CC(C)(C)c1cc(/C=C2/OC(=O)c3ccccc32)cc(C(C)(C)C)c1O
inactive: dose: 100.0 mg/kg/injection, schedule: Q04DX002 (ip), vehicle: saline 99 % of control | dose: 200.0 mg/kg/injection, schedule: Q04DX002 (ip), vehicle: saline 100 % of control | dose: 400.0 mg/kg/injection, schedule: Q04DX002 (ip), vehicle: saline 96 % of control

Cn1c2nc(=O)n(-c3ccccc3)c(=O)c-2nc2c1CCCC2
inactive: dose: 3.13 mg/kg/injection, schedule: Q01DX009 (ip), vehicle: saline with Tween-80 100 % of control | dose: 6.25 mg/kg/injection, schedule: Q01DX009 (ip), vehicle: saline with Tween-80 106 % of control and 109 % of control | [2] 106 % of control and 116 % of control | [3] 110 % of control | [4] 115 % of control | [5] 116 % of control

CSC1=NC=C(C#N)C2=NC(c3cccs3)NN12 (stereo unspecified)
inactive: [1] 118 % of control | [6] 99 % of control | [7] 96 % of control

C=CCNC(=S)N/N=C(\C)c1cccc(C)n1
inactive: dose: 50.0 mg/kg/injection, schedule: Q01DX005 (ip), vehicle: saline with Tween-80 100 % of control | dose: 100.0 mg/kg/injection, schedule: Q01DX005 (ip), vehicle: saline with Tween-80 100 % of control | dose: 200.0 mg/kg/injection, schedule: Q01DX005 (ip), vehicle: saline with Tween-80 112 % of control

O=S(=O)(O)c1cc(O)c2c(N=Cc3ccccc3O)c(S(=O)(=O)O)ccc2c1
inactive: [1] 98 % of control | [6] 97 % of control | [7] 95 % of control

CC(S)c1ccccc1 (stereo unspecified)
inactive: [3] 115 % of control | [4] 113 % of control | [5] 115 % of control

O=C(NCCc1nc(-c2nc(C(=O)O)cs2)cs1)c1ccccc1
inactive: [4] 100 % of control | [5] 100 % of control | dose: 400.0 mg/kg/injection, schedule: Q01DX009 (ip), vehicle: saline with Tween-80 90 % of control

COc1ccc(C2OC(=N)C(=S)N2C)cc1O (stereo unspecified)
inactive: dose: 60.0 mg/kg/injection, schedule: Q01DX005 (ip), vehicle: Klucel (hydroxypropylcellulose) (HPC) 112 % of control | dose: 120.0 mg/kg/injection, schedule: Q01DX005 (ip), vehicle: Klucel (hydroxypropylcellulose) (HPC) 109 % of control | dose: 240.0 mg/kg/injection, schedule: Q01DX005 (ip), vehicle: Klucel (hydroxypropylcellulose) (HPC) 112 % of control

CC(C)C1=CC2=CCC3C(C)(C(N)=O)CCCC3(C)C2CC1CC#N (stereo unspecified)
inactive: [8] 95 % of control | [9] 91 % of control | dose: 400.0 mg/kg/injection, schedule: Q04DX003 (ip), vehicle: saline with Tween-80 91 % of control

NCCSSc1ccccc1[N+](=O)[O-]
inactive: dose: 12.5 mg/kg/injection, schedule: Q01DX005 (ip), vehicle: Klucel (hydroxypropylcellulose) (HPC) 98 % of control | dose: 25.0 mg/kg/injection, schedule: Q01DX005 (ip), vehicle: Klucel (hydroxypropylcellulose) (HPC) 94 % of control | dose: 50.0 mg/kg/injection, schedule: Q01DX005 (ip), vehicle: Klucel (hydroxypropylcellulose) (HPC) 98 % of control and 90 % of control

C[As](C)SC1CC(OC(=O)c2ccccc2)C(OC(=O)c2ccccc2)C(COC(=O)c2ccccc2)O1 (stereo unspecified)
inactive: [3] 100 % of control | [4] 106 % of control | [5] 105 % of control

S=C(N/N=C/c1ccc2c(c1)OCO2)NC1CCCCC1
inactive: [10] 111 % of control | [11] 111 % of control | dose: 200.0 mg/kg/injection, schedule: Q01DX009 (ip), vehicle: Klucel (hydroxypropylcellulose) (HPC) 116 % of control

O=Cc1c(Cl)n(C(=O)c2ccc(F)cc2)c2ccccc12
inactive: dose: 100.0 mg/kg/injection, schedule: Q01DX001 (ip), vehicle: Klucel (hydroxypropylcellulose) (HPC) 97 % of control | dose: 200.0 mg/kg/injection, schedule: Q01DX001 (ip), vehicle: Klucel (hydroxypropylcellulose) (HPC) 113 % of control | dose: 400.0 mg/kg/injection, schedule: Q01DX001 (ip), vehicle: Klucel (hydroxypropylcellulose) (HPC) 96 % of control

O=C(Nc1ccccc1C(=O)Nc1nccs1)c1ccccc1
inactive: [1] 86 % of control | [6] 93 % of control | [7] 98 % of control

CC(/C=C1\C(=O)N(C)C(CC(C)C(Cl)(Cl)Cl)C(=O)N1C)C(Cl)(Cl)Cl (stereo unspecified)
inactive: dose: 4.75 mg/kg/injection, schedule: Q01DX005 (ip), vehicle: saline with Tween-80 101 % of control | dose: 9.5 mg/kg/injection, schedule: Q01DX005 (ip), vehicle: saline with Tween-80 100 % of control | dose: 19.0 mg/kg/injection, schedule: Q01DX005 (ip), vehicle: saline with Tween-80 95 % of control | dose: 38.0 mg/kg/injection, schedule: Q01DX005 (ip), vehicle: saline with Tween-80 101 % of control

CC(c1c[nH]c2ccccc12)N1CCCCC1 (stereo unspecified)
inactive: dose: 12.5 mg/kg/injection, schedule: Q01DX009 (ip), vehicle: Klucel (hydroxypropylcellulose) (HPC) 109 % of control | [12] 115 % of control | [10] 113 % of control

CC1=NN(C(=O)c2ccncc2)C(=O)C1N=Nc1ccc(S(=O)(=O)Nc2nccs2)cc1 (stereo unspecified)
inactive: [3] 102 % of control | [4] 97 % of control | [5] 96 % of control

CC(c1ccccc1)C1(C)NC(=O)NC1=O (stereo unspecified)
inactive: [8] 97 % of control | [9] 101 % of control

OCC1OC(O)C(Cl)(Cl)C(O)C1O (stereo unspecified)
inactive: dose: 50.0 mg/kg/injection, schedule: Q01DX009 (ip), vehicle: saline 107 % of control | dose: 100.0 mg/kg/injection, schedule: Q01DX009 (ip), vehicle: saline 117 % of control | dose: 200.0 mg/kg/injection, schedule: Q01DX009 (ip), vehicle: saline 112 % of control

COC(C#N)c1ccccc1 (stereo unspecified)
inactive: dose: 6.25 mg/kg/injection, schedule: Q04DX003 (ip), vehicle: saline with Tween-80 100 % of control | dose: 12.5 mg/kg/injection, schedule: Q04DX003 (ip), vehicle: saline with Tween-80 100 % of control | dose: 25.0 mg/kg/injection, schedule: Q04DX003 (ip), vehicle: saline with Tween-80 108 % of control and 115 % of control and 91 % of control | dose: 25.0 mg/kg/injection, schedule: Q04DX003 (ip), vehicle: saline 98 % of control

Cc1ccc2c(=O)n(C)c(=O)n(C)c2n1
inactive: [2] 98 % of control | [13] 102 % of control | [3] 103 % of control | [4] 103 % of control

CCCCOC(=O)N(C)SN(C)C(=O)Oc1cccc(C(C)C)c1
inactive: [3] 121 % of control

CCOC(=O)c1ccc(NC(=O)CS)cc1
inactive: [13] 98 % of control | [3] 99 % of control | [4] 102 % of control | [5] 108 % of control

COc1ccc(/C=C/C(=O)c2ccccc2)cc1OC
inactive: [3] 103 % of control | [4] 114 % of control | [5] 100 % of control

O=CNC(Cc1cccc(N(CCCl)CCCl)c1)C(=O)O (stereo unspecified)
inactive: dose: 25.0 mg/kg/injection, schedule: Q01DX009 (ip), vehicle: saline sonified 95 % of control

Cc1cc(O)c(O)cc1C/C=C/c1ccccc1
inactive: dose: 2.5 mg/kg/injection, schedule: Q01DX009 (ip), vehicle: saline with Tween-80 101 % of control | dose: 5.0 mg/kg/injection, schedule: Q01DX009 (ip), vehicle: saline with Tween-80 100 % of control | dose: 10.0 mg/kg/injection, schedule: Q01DX009 (ip), vehicle: saline with Tween-80 100 % of control

CCCCCCCCCCCCNC(=S)C(=S)NCCCCCCCCCCCC
inactive: [12] 98 % of control | [10] 95 % of control | [11] 94 % of control

O=[N+]([O-])c1ccc2c(N=Nc3c(O)ccc4ccccc34)c(O)cc(S(=O)(=O)O)c2c1
inactive: dose: 100.0 mg/kg/injection, schedule: Q04DX003 (ip), vehicle: saline 100 % of control | dose: 132.0 mg/kg/injection, schedule: Q01DX009 (ip), vehicle: saline with Tween-80 109 % of control | [5] 109 % of control | dose: 200.0 mg/kg/injection, schedule: Q04DX003 (ip), vehicle: saline 100 % of control | dose: 300.0 mg/kg/injection, schedule: Q01DX009 (ip), vehicle: saline with Tween-80 113 % of control | dose: 400.0 mg/kg/injection, schedule: Q04DX003 (ip), vehicle: saline 111 % of control

Cc1cccc(Nc2c3c(nc4ccccc24)CCCCC3)c1
inactive: [1] 98 % of control | [6] 90 % of control | [7] 91 % of control
